Test results published in patent US8252572B2, “Use of islet glucose-6-phosphatase related protein as a diagnostic tool and therapeutic target for autoimmune diabetes” (priority 2003, dated 2012).

Assays:
NY8.3 CD8 T-cell clone = details: cited from earlier work
[1] = test system: mixed lymphocyte preparations of pre-diabetic 12 week old female NOD mice; test: T-cell proliferative responses to recombinant antigens (3H thymidine); type: cell-based, NOD mouse; details: for T-cell proliferative response (in words): recombinant antigens as β-galactosidase fusion proteins, NOD lymphocytes
Description: Lymphocytes prepared from pancreatic draining lymph nodes were mixed with splenocytes from the same animal and incubated for 3 days (500×10^3 cells) in Click's medium with […] NOD mouse serum 50 μM mercaptoethanol and the indicated recombinant antigens that were generated as fusion proteins with β-galactosidase in the pUEX vector. Cultures were pulsed for 16 h with ^3H thymidine prior to harvest.
T-cell proliferative responses to recombinant IGRP (3-100 μg/ml) were observed from mixed lymphocyte preparations of pre-diabetic 12 week old female NOD mice (SImax=10).

[2] = test system: CD8 positive cells from the whole pancreas of NOD mice; test: MHC class I tetramer binding to pancreatic mononuclear cells (FACS); type: cell-based, NOD mouse
Source text: Cells were isolated from collagenase digested mouse pancreas by gradient centrifugation and subject to 3 color FACS analysis using antibodies to CD45, CD8 and PE-streptavidin conjugated tetramers carrying peptides derived from IGRP. The gated (R1) population were 95% CD45 positive and composed of 12.5% CD8 cells.
MHC class I tetramers were generated using the NIH tetramer facility. These were loaded with a series of peptides including the native mouse IGRP peptide (VYLKTNVFL (SEQ ID NO.: 6); peptide C, FIG. 4) corresponding to the NRP-V7 mimeotope (KYNKANVFL (SEQ ID NO.: 7)) that stimulates the NY8.3 CD8 T-cell clone. A procedure was developed for the isolation of mononuclear cells from the whole pancreas of NOD mice yielding approximately 0.5-1×10^6 CD45 positive cells (lymphocytes) per mouse (12-16 wk females) for tetramer binding assays (FIG. 4). The lymphocyte population contained 10-15% CD8 positive cells of which 8% bound the native peptide tetramer. These assays confirm the remarkable finding that a major proportion of the CD8 cells in the NOD pancreas target one specific IGRP epitope. The procedure developed here represents a technical advance on previous tetramer studies of activated NRP reactive T-cell in NOD mice which required up to 40 animals for a single experiment and amplification of islet-derived T-cells for 7-9 days in the presence of IL-2.

KYNKANVFL (SEQ ID NO.: 7) (artificial Mus sp.) [NRP-V7, mimeotope that stimulates the NY8.3 CD8 T-cell clone]
stimulation of T-cell clone (in words) (NY8.3 CD8 T-cell clone): stimulates

β-galactosidase: the fusion partner, used as control antigen [reference compound]
T-cell proliferative response (in words) [1]: minimal response

VYLKTNVFL (SEQ ID NO.: 6) (listed as Mus sp.) [peptide C, native mouse IGRP peptide, cognate peptide of the NY8.3 clone]
proportion of CD8 positive cells that bound the tetramer ([2]; K^d tetramer loaded with peptide, pancreatic lymphocytes of 12-16 wk female NOD mice): 8% | tetramer staining of pancreatic CD8 cells (in words) ([2]; PE-streptavidin conjugated tetramers carrying peptides derived from IGRP, 3 color FACS, FIG. 4): significant proportion bound

B1: UGRP: equivalent construct with ubiquitously expressed G6Pase related protein (protein, UniProt Q6NSQ9 1-346, looked up)
Glucose-6-phosphatase 3: MESTLSAGIIMAEALQNRLPGLENMWLWVTFLGDPKNLFQFCFPAAYYASRRLGISVLWITFIAEWLNLVFKWFLFGDRPFWWVHESGYSTQTPIQIHQFPSSCETGPGSPSGHCMITGAALWPVMTAISSQVASRSRSPWVRVIPGLAYCTFLLAVGLSRVFLLAHFPHQVLGGLIVGAALGWLMSPRVPMERELSFYGLTALALMLGASLMYWTLFTLGLDLSWSINLASKWCERPEWVHMDSRPFASLSRDSGSALGLGIALHTPCYAQIRRAHLGNGQKIACFVLAMGLLVFLEWLGYPPQISLFYIFNFLKYTLWPCLVLALVPWVVHTLSDQEAPPIRSS
T-cell proliferative response (in words) [1]: minimal response

B2: G6Pase: equivalent β-galactosidase fusion construct with liver glucose-6-phosphatase (protein, UniProt P35575 1-357, looked up)
Glucose-6-phosphatase …: MEEGMNVLHDFGIQSTHYLQVNYQDSQDWFILVSVIADLRNAFYVLFPIWFHLQEAVGIKLLWVAVIGDWLNLVFKWILFGQRPYWWVLDTDYYSNTSVPLIKQFPVTCETGPGSPSGHAMGTAGVYYVMVTSTLSIFQGKIKPTYRFRCLNVILWLGFWAVQLNVCLSRIYLAAHFPHQVVAGVLSGIAVAETFSHIHSIYNASLKKYFLITFFLFSFAIGFYLLLKGLGVDLLWTLEKAQRWCEQPEWVHIDTTPFASLLKNLGTLFGLGLALNSSMYRESCKGKLSKWLPFRLSSIVASLVLLHVFDSLKPPSQVELVFYVLSFCKSAVVPLASVSVIPYCLAQVLGQPHKKSL
T-cell proliferative response (in words) [1]: minimal response

B3: recombinant IGRP: recombinant islet glucose-6-phosphatase related protein generated as fusion protein with β-galactosidase in the pUEX vector (protein, UniProt Q9Z186 1-355, looked up)
Glucose-6-phosphatase 2: MDFLHRSGVLIIHHLQEDYRTYYGFLNFMSNVGDPRNIFSIYFPLWFQLNQNVGTKMIWVAVIGDWFNLIFKWILFGHRPYWWIQETEIYPNHSSPCLEQFPTTCETGPGSPSGHAMGSSCVWYVMVTAALSYTISRMEESSVTLHRLTWSFLWSVFWLIQISVCISRVFIATHFPHQVILGVIGGMLVAEAFEHTPGVHMASLSVYLKTNVFLFLFALGFYLLLRLFGIDLLWSVPIAKKWCANPDWIHIDSTPFAGLVRNLGVLFGLGFAINSEMFLRSCQGENGTKPSFRLLCALTSLTTMQLYRFIKIPTHAEPLFYLLSFCKSASIPLMVVALIPYCVHMLMRPGDKKTK
T-cell proliferative response, SImax ([1]; recombinant IGRP 3-100 μg/ml, β-galactosidase fusion protein, 3 days culture, 16 h 3H thymidine pulse): 10
